{
  "source": "patent US8802597B2",
  "about": "“Herbicidal pyrimidines” (E I du Pont de Nemours and Company, priority 2003, dated 2014)",
  "type_in_all_cases": "in vivo",
  "key": {"[1]": {"tested_on": "velvetleaf (Abutilon theophrasti)", "assay": "Test A pre/postemergence", "settings": "Abutilon theophrasti, 240 h, read-out: Plant response rating, Velvetleaf; for pest or weed control at 125 g/ha: 125 g ai/ha; for pest or weed control at 500 g/ha: 500 g ai/ha", "in_short": "(§1)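 Seeds in loam–sand blend received preemergence directed soil spray and, concurrently, postemergence application (plants 2–10 cm, 1–2-leaf stage) of compound in non-phytotoxic solvent with surfactant. After about ten days in greenhouse, injury rated visually versus untreated controls, 0 (no effect) to 100 (complete control).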"}, "[2]": {"tested_on": "redroot pigweed (Amaranthus retroflexus)", "assay": "Test A pre/postemergence", "settings": "Amaranthus retroflexus, 240 h, read-out: Plant response rating, Pigweed; for pest or weed control at 125 g/ha: 125 g ai/ha; for pest or weed control at 500 g/ha: 500 g ai/ha", "in_short": "as §1"}, "[3]": {"tested_on": "morningglory (Ipomoea spp.)", "assay": "Test A pre/postemergence", "settings": "Ipomoea, 240 h, read-out: Plant response rating, Morningglory; for pest or weed control at 125 g/ha: 125 g ai/ha; for pest or weed control at 500 g/ha: 500 g ai/ha", "in_short": "as §1"}, "[4]": {"tested_on": "giant foxtail (Setaria faberi)", "assay": "Test A pre/postemergence", "settings": "Setaria faberi, 240 h, read-out: Plant response rating, Foxtail, Giant; for pest or weed control at 125 g/ha: 125 g ai/ha; for pest or weed control at 500 g/ha: 500 g ai/ha", "in_short": "as §1"}, "[5]": {"tested_on": "blackgrass (Alopecurus myosuroides)", "assay": "Test C postemergence", "in_short": "(§2)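 Visual injury ratings, 0 (no effect) to 100 (complete control), made 12 to 14 days after treatment by comparison with untreated controls. Greenhouse plants received test chemical in a surfactant-containing non-phytotoxic solvent, either preemergence on planted seeds or postemergence at the 1- to 4-leaf stage.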"}, "[6]": {"tested_on": "downy brome (Bromus tectorum)", "assay": "Test C postemergence", "in_short": "as §2"}, "[7]": {"tested_on": "windgrass (Apera spica-venti)", "assay": "Test C postemergence", "in_short": "as §2"}, "[8]": {"tested_on": "wheat (Triticum aestivum)", "assay": "Test C postemergence", "in_short": "as §2"}, "[9]": {"tested_on": "winter barley (Hordeum vulgare)", "assay": "Test C postemergence", "in_short": "as §2"}, "[10]": {"tested_on": "green foxtail (Setaria viridis)", "assay": "Test C postemergence", "in_short": "as §2"}, "[11]": {"tested_on": "canarygrass (Phalaris minor)", "assay": "Test C postemergence", "in_short": "as §2"}, "wild oat (Avena fatua)": {"tested_on": "wild oat (Avena fatua)", "assay": "Test C postemergence", "in_short": "as §2"}, "[12]": {"tested_on": "Italian ryegrass (Lolium multiflorum)", "assay": "Test C postemergence", "in_short": "as §2"}, "[13]": {"settings": "post-emergence, Postemergence, 0 to 100 scale (0 no effect, 100 complete control)"}, "[14]": {"settings": "pre-emergence, Preemergence, 0 to 100 scale where 0 is no effect and 100 is complete control, approximately ten days"}},
  "note": "Read-outs that look alike come from different tables or passages of the source.",
  "data": [
    {"smiles": "Nc1nc(C2CC2)nc(C(=O)OCc2ccccc2)c1Cl", "note": "[Compound 78, phenylmethyl 6-amino-5-chloro-2-cyclopropyl-4-pyrimidinecarboxylate]", "values": [
      {"measurement": "pest or weed control at 125 g/ha", "setting": "[1]; [13]", "result": 75, "unit": "%"},
      {"measurement": "pest or weed control at 500 g/ha", "setting": "[1]; [13]", "result": 90, "unit": "%"},
      {"measurement": "pest or weed control at 125 g/ha", "setting": "[1]; [14]", "result": 80, "unit": "%"},
      {"measurement": "pest or weed control at 500 g/ha", "setting": "[1]; [14]", "result": 85, "unit": "%"},
      {"measurement": "pest or weed control at 125 g/ha", "setting": "[2]; [13]", "result": 85, "unit": "%"},
      {"measurement": "pest or weed control at 500 g/ha", "setting": "[2]; [13]", "result": 95, "unit": "%"},
      {"measurement": "pest or weed control at 125 g/ha", "setting": "[2]; [14]", "result": 75, "unit": "%"},
      {"measurement": "pest or weed control at 500 g/ha", "setting": "[2]; [14]", "result": 90, "unit": "%"},
      {"measurement": "pest or weed control at 125 g/ha", "setting": "[3]; [13]", "result": 80, "unit": "%"},
      {"measurement": "pest or weed control at 500 g/ha", "setting": "[3]; [13]", "result": 90, "unit": "%"},
      {"measurement": "pest or weed control at 125 g/ha", "setting": "[3]; [14]", "result": 90, "unit": "%"},
      {"measurement": "pest or weed control at 500 g/ha", "setting": "[3]; [14]", "result": 100, "unit": "%"},
      {"measurement": "pest or weed control at 125 g/ha", "setting": "[4]; [13]", "result": 70, "unit": "%"},
      {"measurement": "pest or weed control at 500 g/ha", "setting": "[4]; [13]", "result": 80, "unit": "%"},
      {"measurement": "pest or weed control at 125 g/ha", "setting": "[4]; [14]", "result": 10, "unit": "%"},
      {"measurement": "pest or weed control at 500 g/ha", "setting": "[4]; [14]", "result": 65, "unit": "%"},
      {"measurement": "Plant response rating (scale of 0 to 100), Blackgrass", "setting": "[5]; 31 g ai/ha", "result": 0},
      {"measurement": "Plant response rating (scale of 0 to 100), Blackgrass", "setting": "[5]; 62 g ai/ha", "result": 5},
      {"measurement": "Plant response rating, Blackgrass", "setting": "[5]; 250 g ai/ha, scale 0 to 100", "result": 50},
      {"measurement": "pest or weed control at 125 g/ha", "setting": "[5]; Alopecurus myosuroides, post-emergence, 125 g ai/ha, scale 0 to 100 (0 no effect, 100 complete control), read-out: Blackgrass plant response rating", "result": 5, "unit": "%"},
      {"measurement": "Plant response rating (scale of 0 to 100), Bromegrass, Downy", "setting": "[6]; 31 g ai/ha", "result": 5},
      {"measurement": "Plant response rating (scale of 0 to 100), Bromegrass, Downy", "setting": "[6]; 62 g ai/ha", "result": 10},
      {"measurement": "Plant response rating, Bromegrass, Downy", "setting": "[6]; 250 g ai/ha, scale 0 to 100", "result": 55},
      {"measurement": "pest or weed control at 125 g/ha", "setting": "[6]; Bromus tectorum, post-emergence, 125 g ai/ha, scale 0 to 100 (0 no effect, 100 complete control), read-out: Bromegrass, Downy plant response rating", "result": 15, "unit": "%"},
      {"measurement": "Plant response rating (scale of 0 to 100), Windgrass", "setting": "[7]; 31 g ai/ha", "result": 5},
      {"measurement": "Plant response rating (scale of 0 to 100), Windgrass", "setting": "[7]; 62 g ai/ha", "result": 30},
      {"measurement": "Plant response rating, Windgrass", "setting": "[7]; 250 g ai/ha, scale 0 to 100", "result": 40},
      {"measurement": "pest or weed control at 125 g/ha", "setting": "[7]; Apera spica-venti, post-emergence, 125 g ai/ha, scale 0 to 100 (0 no effect, 100 complete control), read-out: Windgrass plant response rating", "result": 30, "unit": "%"},
      {"measurement": "Plant response rating (scale of 0 to 100), Wheat", "setting": "[8]; 31 g ai/ha", "result": 20},
      {"measurement": "Plant response rating (scale of 0 to 100), Wheat", "setting": "[8]; 62 g ai/ha", "result": 20},
      {"measurement": "Plant response rating, Wheat", "setting": "[8]; 250 g ai/ha, scale 0 to 100", "result": 55},
      {"measurement": "plant injury at 125 g/ha", "setting": "[8]; Triticum aestivum, post-emergence, 125 g ai/ha, scale 0 to 100 (0 no effect, 100 complete control), read-out: Wheat plant response rating", "result": 30, "unit": "%"},
      {"measurement": "Plant response rating (scale of 0 to 100), Barley", "setting": "[9]; 31 g ai/ha", "result": 5},
      {"measurement": "Plant response rating, Barley", "setting": "[9]; 250 g ai/ha, scale 0 to 100", "result": 90},
      {"measurement": "plant injury at 62 g/ha", "setting": "[9]; Hordeum vulgare, post-emergence, 62 g ai/ha, scale 0 to 100 (0 no effect, 100 complete control), read-out: Barley plant response rating", "result": 5, "unit": "%"},
      {"measurement": "plant injury at 125 g/ha", "setting": "[9]; Hordeum vulgare, post-emergence, 125 g ai/ha, scale 0 to 100 (0 no effect, 100 complete control), read-out: Barley plant response rating", "result": 30, "unit": "%"},
      {"measurement": "Plant response rating (scale of 0 to 100), Foxtail, Green", "setting": "[10]; 31 g ai/ha", "result": 25},
      {"measurement": "Plant response rating (scale of 0 to 100), Foxtail, Green", "setting": "[10]; 62 g ai/ha", "result": 40},
      {"measurement": "Plant response rating, Foxtail, Green", "setting": "[10]; 250 g ai/ha, scale 0 to 100", "result": 75},
      {"measurement": "pest or weed control at 125 g/ha", "setting": "[10]; Setaria viridis, post-emergence, 125 g ai/ha, scale 0 to 100 (0 no effect, 100 complete control), read-out: Foxtail, Green plant response rating", "result": 70, "unit": "%"},
      {"measurement": "Plant response rating (scale of 0 to 100), Canarygrass", "setting": "[11]; 31 g ai/ha", "result": 0},
      {"measurement": "Plant response rating (scale of 0 to 100), Canarygrass", "setting": "[11]; 62 g ai/ha", "result": 0},
      {"measurement": "Plant response rating, Canarygrass", "setting": "[11]; 250 g ai/ha, scale 0 to 100", "result": 0},
      {"measurement": "pest or weed control at 125 g/ha", "setting": "[11]; Phalaris minor, post-emergence, 125 g ai/ha, scale 0 to 100 (0 no effect, 100 complete control), read-out: Canarygrass plant response rating", "result": 0, "unit": "%"},
      {"measurement": "Plant response rating (scale of 0 to 100), Oat, Wild", "setting": "wild oat (Avena fatua); 31 g ai/ha", "result": 5},
      {"measurement": "Plant response rating (scale of 0 to 100), Oat, Wild", "setting": "wild oat (Avena fatua); 62 g ai/ha", "result": 10},
      {"measurement": "Plant response rating, Oat, Wild", "setting": "wild oat (Avena fatua); 250 g ai/ha, scale 0 to 100", "result": 60},
      {"measurement": "pest or weed control at 125 g/ha", "setting": "wild oat (Avena fatua); Avena fatua, post-emergence, 125 g ai/ha, scale 0 to 100 (0 no effect, 100 complete control), read-out: Oat, Wild plant response rating", "result": 60, "unit": "%"},
      {"measurement": "Plant response rating (scale of 0 to 100), Ryegrass, Italian", "setting": "[12]; 31 g ai/ha", "result": 0},
      {"measurement": "Plant response rating (scale of 0 to 100), Ryegrass, Italian", "setting": "[12]; 62 g ai/ha", "result": 10},
      {"measurement": "Plant response rating, Ryegrass, Italian", "setting": "[12]; 250 g ai/ha, scale 0 to 100", "result": 25},
      {"measurement": "pest or weed control at 125 g/ha", "setting": "[12]; Lolium multiflorum, post-emergence, 125 g ai/ha, scale 0 to 100 (0 no effect, 100 complete control), read-out: Ryegrass, Italian plant response rating", "result": 20, "unit": "%"}
    ]}
  ]
}
